Source: US20090318402A1, “RUTHENIUM (II) COMPOUNDS” (The University Court of the University of Edinburg, priority 2006, published 2009)

What was measured:
A2780 cancer cell line = experiment: Cytotoxicity: inhibitory growth activity, sulforhodamine B assay; format: cell-based; settings: 24 hours drug exposure, 96 hours recovery, SRB
Experimental: (§1) Compounds were tested for inhibitory growth activity against the A2780 and A549 cancer cell lines. Each drug was tested for activity at six different concentrations (100 μM, 50 μM, 10 μM, 5 μM, 1 μM and 0.1 μM) and each concentration was tested in triplicate, relative to a cisplatin control.
(§2) The A2780 cancer cell line was maintained by growing the cells in RPMI media supplemented with 5% fetal bovine serum, 1% penicillin/streptomycin and 2 mM L-glutamine. The cells were split when approximately 70-80% confluence were reached using 0.25% trypsin/EDTA. The cells were kept incubated at 37° C., 5% CO2, high humidity. The A549 cancer cell line was maintained by growing the cells in DMEM media supplemented with 10% fetal bovine serum, 1% penicillin/streptomycin and 2 mM L-glutamine. The cells were split when approximately 70-80% confluence were reached using 0.25% trypsin/EDTA. The cells were kept incubated at 37° C., 5% CO2, high humidity.
A2780 cancer cells were plated out at 50000 cells/well (±10%) on day one. A549 cancer cells were plated out at 20000 cells/well (±10%) on day two. On day three the test compound was dissolved in DMSO to give a stock solution of 20 mM and serial dilutions were carried out in DMSO to give concentrations of drug in DMSO of 10 mM, 2 mM, 1 mM, 0.2 mM and 0.02 mM. These were added to the wells to give the six testing concentrations and a final concentration of DMSO as 0.5% (v/v) with a total volume of drugs and media to be 200 μl. The cells were exposed to the drug for 24 hours then, after drug removal, fresh media was given and the cells were incubated for 96 hours recovery time. The remaining biomass was estimated by the sulforhodamine B assay. The cells were then fixed using 50 μl 50% (w/v) TCA and incubated at 4° C. for one hour. The biomass was stained with 100 μl 0.4% (w/v) sulforhodamine B in 1% acetic acid. The dye was solubilised with Tris Buffer and the absorbance was read using a BMG Fluostar microplate reader at 595 nm. A baseline correction at 690 nm was subtracted from the values. The absorbance for 100% cell survival was based on the average absorbance for the 0.1 μM dosed triplicate for that drug. IC50 values were calculated using XL-Fit version 4.0.

A549 cancer cell line [1] = experiment: as above; format: cell-based; settings: 24 hours drug exposure, 96 hours recovery, SRB
Experimental: as §1
as §2, with “The cells were split when approximately 70-80% confluence were reached using 0.25% trypsin/EDTA.” left out
A2780 cancer cells were plated out at 50000 cells/well (±10%) on day one. A549 cancer cells were plated out at 20000 cells/well (±10%) on day two. […] The remaining biomass was estimated by the sulforhodamine B assay. The cells were then fixed using 50 μl 50% (w/v) TCA and incubated at 4° C. for one hour. The biomass was stained with 100 μl 0.4% (w/v) sulforhodamine B in 1% acetic acid. The dye was solubilised with Tris Buffer and the absorbance was read using a BMG Fluostar microplate reader at 595 nm. A baseline correction at 690 nm was subtracted from the values. The absorbance for 100% cell survival was based on the average absorbance for the 0.1 μM dosed triplicate for that drug. IC50 values were calculated using XL-Fit version 4.0.

A549 cancer cells = experiment: Detection of reactive oxygen species (ROS) with DCFH-DA probe; format: cell-based; settings: 25 μM, 0.5% DMSO, 6.5 hours, 310 K, cells pre-loaded with DCFH-DA; FIG. 4
Experimental: The generation of ROS can be detected inside living cells using the molecular probe DCFH-DA. This probe crosses the membrane into cells where it is hydrolyzed to DCFH. In the presence of ROS it is oxidized to highly fluorescent DCF. […] Cells were loaded with DCFH-DA (10 μM, 0.5% DMSO (v/v)) and were incubated at 310 K, 5% CO2, high humidity for 30 minutes. The probe was removed and the cells were washed twice with PBS (200 μL). The cells were then kept in Hanks Balanced Salt Solution (HBSS) and the ruthenium compounds were diluted with HBSS and added to the wells (25 μM, 0.5% DMSO (v/v)). Hydrogen peroxide (25 μM) was added as a positive control and the fluorescence was read every 200 seconds over a period of 6.5 hours at 310 K by excitation at 480±10 nm and emission at 538±15 nm on a BMG fluostar plate reader. A time course experiment was performed to follow any increase in fluorescence over 6.5 hours after addition of ruthenium compounds to cells pre-loaded with DFCH-DA.

A549 cancer cell line [2] = experiment: Cell viability after increasing thiol levels (NAC pre-incubation); format: cell-based; settings: 24 hours incubation, 96 hour recovery, 5 mM NAC for two hours, FIG. 5
Experimental: Cell viability was determined in the A549 cancer cell line after cells were pre-incubated with 5 mM NAC to increase intracellular thiol levels. […] This implies that ROS are involved in cell death.

[3] = Aqueous solution chemistry followed by 1H NMR (hydrolysis, arene loss); format: physicochemical
Experimental: NMR-Spectroscopy: All ^1H NMR experiments for characterization of synthesized compounds were recorded on either a Bruker DMX 500 MHz spectrometer equipped with TBI [^1H, ^13C, ^15N] probe-head, equipped with z-field gradients or a Bruker DPX 360 MHz spectrometer. The proton signals were calibrated against the residual solvent peak, δ 7.27 (chloroform), 2.07 (acetone) and 2.52 (DMSO). The 2D ^1H-TOCSY and 2D ^1H COSY experiments for characterization were run on a Bruker DMX 500 MHz spectrometer. 2D-^1H ROESY experiment for characterization was recorded on a Bruker AVA […] spectrometer equipped with a with a TXI [^1H, ^13C, ^15N] probe-head, equipped with z-field gradients. All pH titration experiments were recorded on a Bruker AVA 600 MHz spectrometer where dioxan was added as an internal reference (δ 3.75, in 100% D2O). The water was suppressed using a 1D Double Pulse Field Gradient Spin Echo (DPFGSE) experiment. The aqueous solution behaviour was recorded on a Bruker bio 600 MHz spectrometer equipped with a cryoprobe and the water was suppressed using a 1D Double Pulse Field Gradient Spin Echo (DPFGSE) experiment. The chemical shifts were measured relative to dioxin (internal reference δ 3.75, in 90% H2O/10% D2O). All spectra were recorded using 5 mm quartz tubes at 298 K unless stated otherwise. All NMR data were processed using Xwin-NMR (Version 2.0 Bruker UK Ltd).
The complex was dissolved in H2O/D2O, the pH was taken, and NMR spectra were recorded at uniform time intervals at a fixed temperature using a multi-zg kinetic experiment program. After acquisition, Electrospray Mass Spectrometry was performed on a portion of the NMR solution.
The solution chemistry was followed by ^1H NMR unless stated otherwise.

[4] = Solution chemistry in phosphate buffer mimicking cell test conditions (NMR, ESI-MS); format: physicochemical; settings: 100 μM, 10 mM phosphate buffer, 95% D2O, 5% MeOD, 310 K, 24 h; pH* 7.35 (8), 7.40 (10), 7.31 (13), 7.38 (21)
Experimental: Solutions of four ruthenium complexes (8, 10, 13 and 21) in MeOD were diluted down in 10 mM phosphate buffer/D2O to give a final concentration of 100 μM ruthenium (95% D2O, 5% MeOD) and NMR spectra were recorded at 310 K initially (time ca. 15 minutes) and after 24 h. The pH* of the samples was 7.35 (8), 7.40 (10), 7.31 (13) and 7.38 (21), The samples were kept in the water bath at 310 K between acquisitions. After 24 hour, ESI-MS was performed on the samples. These conditions were chosen to mimic pH, concentration, exposure time and temperature for the biological cell tests.

[5] = Reactions with ascorbate (UV-Vis, 1H NMR); format: physicochemical; settings: 5 equivalents ascorbate, 10 mM phosphate buffer, pH 7.35 (UV-Vis) / 7.30 (NMR), 310K
[6] = 50 μM, 95% H2O, 5% MeOH, pH 2.27
[7] = 100 μM, 90% H2O/10% D2O, pH=ca 5, 25° C., initially (time=40 mins)

Molecule: [Ru(THN)(3(5)-(4-dimethylaminophenylazo)pyrazole)Cl]PF6 [Compound 18]
- IC50 (A2780 cancer cell line): 57 µM

Molecule: [Ru(biphenyl)(Azpy-NMe2)Cl]PF6 [Compound 9]
- IC50 (A2780 cancer cell line): 40 µM
- IC50 (A549 cancer cell line [1]): 53 µM

Molecule: [Ru(p-cymene)(4-phenol-azo pyridine)Cl]PF6 [Compound 11]
- IC50 (A2780 cancer cell line): 54 µM

Molecule: [Ru(p-cymene)(4-phenol-azo pyridine)I]PF6 [Compound 21]
- IC50 (A2780 cancer cell line): 4 µM
- IC50 (A549 cancer cell line [1]): 4 µM
- change in DCF fluorescence over time (ROS generation) (A549 cancer cells): increase in the DCF fluorescence
- cell survival of cells pre-treated with NAC versus untreated cells (A549 cancer cell line [2]; 5 μM drug): greater cell survival

Molecule: CN(C)c1ccc(N=Nc2cc[nH]n2)cc1.F[P-](F)(F)(F)(F)F.[I-].[Ru+2].c1ccc(-c2ccccc2)cc1 [Compound 16, [Ru(biphenyl)(3(5)-(4-dimethylaminophenylazo)pyrazole)I]PF6]
- IC50 (A2780 cancer cell line): 31 µM
- IC50 (A549 cancer cell line [1]): 42 µM

Molecule: [Ru(bip)(2-phenyl-azo pyridine)I]PF6 [Compound 7]
- IC50 (A2780 cancer cell line): 51 µM
- IC50 (A549 cancer cell line [1]): 39 µM

Molecule: [Ru(THN)(4-phenol-azo pyridine)Cl]PF6 [Compound 19]
- IC50 (A2780 cancer cell line): 38 µM
- IC50 (A549 cancer cell line [1]): 81 µM

Molecule: [(η^6-C6H5OCH2CH2OH)Ru(azpy-NMe2)I]I [Compound 22]
- IC50 (A2780 cancer cell line): 15 µM
- IC50 (A549 cancer cell line [1]): 49 µM

Molecule: [Ru(biphenyl)(Azpy-NMe2)I]PF6 [Compound 10]
- IC50 (A2780 cancer cell line): 3 µM
- IC50 (A549 cancer cell line [1]): 2 µM
- change in DCF fluorescence over time (ROS generation) (A549 cancer cells): increase in the DCF fluorescence
- cell survival of cells pre-treated with NAC versus untreated cells (A549 cancer cell line [2]; 1 μM drug): greater cell survival

Molecule: [NH2][Pt]([NH2])([Cl])[Cl] [CDDP, cisplatin, reference compound]
- cell survival of cells pre-treated with NAC versus untreated cells (A549 cancer cell line [2]; 5 μM drug): greater cell survival

Molecule: [Ru(biphenyl)(4-phenol-azo pyridine)I]PF6 [Compound 13]
- IC50 (A2780 cancer cell line): 5 µM
- IC50 (A549 cancer cell line [1]): 6 µM
- change in DCF fluorescence over time (ROS generation) (A549 cancer cells): increase in the DCF fluorescence
- cell survival of cells pre-treated with NAC versus untreated cells (A549 cancer cell line [2]; 5 μM drug): greater cell survival

Molecule: [Ru(biphenyl)(4-phenol-azo pyridine)Cl]PF6 [Compound 12]
- IC50 (A2780 cancer cell line): 18 µM
- IC50 (A549 cancer cell line [1]): 56 µM

Molecule: [Ru(p-cymene)(Azpy-NMe2NO2)I]PF6 [Compound 20]
- IC50 (A2780 cancer cell line): 40 µM
- IC50 (A549 cancer cell line [1]): 28 µM

Molecule: CN(C)c1ccc(N=Nc2ccccn2)cc1.Cc1ccc(C(C)C)cc1.F[P-](F)(F)(F)(F)F.[I-].[Ru+2] [Compound 8, [Ru(p-cymene)(Azpy-NMe2)I]PF6]
- IC50 (A2780 cancer cell line): 5 µM
- IC50 (A549 cancer cell line [1]): 3 µM
- change of complex in solution ([3]; 100 μM, 99.5% D2O, 0.5% DMSO, 115 mM NaCl, pH=7.5, 37° C., over 24 hours): No change occurred
- change of complex in solution ([3]; saturated solution (filtered), 90% H2O/10% D2O, pH=7.2, 25° C. over 24 hours): No change occurred
- hydrolysis [4]: no hydrolysis had occurred
- reduction by ascorbate [5]: a one electron reduction was occurring
- change in DCF fluorescence over time (ROS generation) (A549 cancer cells): increase in the DCF fluorescence
- cell survival of cells pre-treated with NAC versus untreated cells (A549 cancer cell line [2]; 5 μM drug): greater cell survival

Molecule: [Ru(benzene)(3(5)-(4-dimethylaminophenylazo)pyrazole)Cl]PF6 [Compound 17]
- IC50 (A2780 cancer cell line): 88 µM

Molecule: [Ru(p-cymene)(3(5)-(4-dimethylaminophenylazo)pyrazole)Cl]PF6 [Compound 14]
- IC50 (A2780 cancer cell line): 18 µM
- IC50 (A549 cancer cell line [1]): 41 µM
- speciation after 24 hours ([3]; 100 μM, 90% H2O/10% D2O, pH=ca 5, 25° C., after 24 hours): exists fully in the aqua form
- aqua species [3, 7]: ~40%
- chloride species [3, 7]: ~60%
- course of the hydrolysis reaction ([3]; 100 μM, 90% H2O/10% D2O, pH=ca 5, 37° C. over 24 hours, compared with 25° C.): the course of the reaction is the same
- half live for hydrolysis [6]: 2.09 h

Molecule: CN(C)c1ccc(N=Nc2cc[nH]n2)cc1.F[P-](F)(F)(F)(F)F.[Cl-].[Ru+2].c1ccc(-c2ccccc2)cc1 [Compound 15, [Ru(biphenyl)(3(5)-(4-dimethylaminophenylazo)pyrazole)Cl]PF6]
- IC50 (A2780 cancer cell line): 24 µM
- IC50 (A549 cancer cell line [1]): 32 µM
- arene loss (free biphenyl peaks) ([3]; 100 μM, 99.5% D2O, 0.5% DMSO, 115 mM NaCl, pH=7.35, 37° C., over 24 hours): major peaks corresponding to free biphenyl
